For series [1], the target named is von Hippel-Lindau disease tumor suppressor (Homo sapiens, UniProt P40337). Nature of the series: Inhibition of VHL (unknown origin).
Series [2] can be described thus: PROTAC activity at SMARCA4/E3 ubiquitin ligase (unknown origin) assessed as protein degradation. Further details: species or system Homo sapiens.
For series [3], the species on record is Homo sapiens. Briefly: PROTAC activity at SMARCA2/E3 ubiquitin ligase (unknown origin) assessed as maximal protein degradation.
Series [4] in a line: PROTAC activity at SMARCA2/E3 ubiquitin ligase (unknown origin) assessed as protein degradation. Further details: species or system Homo sapiens.
The species named for series [5] is Homo sapiens. Briefly: PROTAC activity at SMARCA4/E3 ubiquitin ligase (unknown origin) assessed as maximal protein degradation.
For series [6], the species on record is Homo sapiens. Briefly: Selectivity ratio, ratio of DC50 for PROTAC activity at SMARCA2/E3 ubiquitin ligase (unknown origin) to DC50 for PROTAC activity at SMARCA4/E3 ubiquitin ligase (unknown origin.
Series [7] can be described thus: Drug uptake in tumor of human NCI-H838 cells xenografted SCID mouse model at 10 mg/kg, iv measured after 48 hrs by LC-MS/MS analysis. It is filed as ADME, organism-based, Neoplasm. Conditions: read-out: Drug uptake. On the technique in general: A xenograft is tissue or cells of one species grown in another, often human tumour cells in immunodeficient mice.
A short description of series [8]: Drug uptake in tumor of human NCI-H838 cells xenografted SCID mouse model at 10 mg/kg, iv measured after 168 hrs by LC-MS/MS analysis. It is filed as ADME, organism-based, Neoplasm. Conditions: read-out: Drug uptake.
A short description of series [9]: Plasma concentration in SCID mouse xenografted with human NCI-H838 cells at 10 mg/kg, iv measured after 168 hrs by LC-MS/MS analysis. Format: ADME, organism-based. Conditions: SCID, plasma.
Series [10] concerns the target von Hippel-Lindau disease tumor suppressor/SWI/SNF-related matrix-associated actin-dependent regulator of chromatin subfamily A member 2 (Homo sapiens, UniProt P51531+P40337). Briefly: PROTAC activity at SMARCA2/VHL1 in human HeLa cells assessed as protein degradation by Nano-Glo HiBiT lytic detection assay. It is filed as cell-based.
The target in series [11] is T1, von Hippel-Lindau disease tumor suppressor/SWI/SNF-related matrix-associated actin-dependent regulator of chromatin subfamily A member 4 (Homo sapiens, UniProt P51532+P40337). Nature of the series: PROTAC activity at SMARCA4/VHL1 in human HeLa cells assessed as protein degradation by Nano-Glo HiBiT lytic detection assay. Format: cell-based. Background: With HiBiT, luminescence reflects the tagged protein that the partner subunit can reach.
T1 sequence (P51532 whole entry): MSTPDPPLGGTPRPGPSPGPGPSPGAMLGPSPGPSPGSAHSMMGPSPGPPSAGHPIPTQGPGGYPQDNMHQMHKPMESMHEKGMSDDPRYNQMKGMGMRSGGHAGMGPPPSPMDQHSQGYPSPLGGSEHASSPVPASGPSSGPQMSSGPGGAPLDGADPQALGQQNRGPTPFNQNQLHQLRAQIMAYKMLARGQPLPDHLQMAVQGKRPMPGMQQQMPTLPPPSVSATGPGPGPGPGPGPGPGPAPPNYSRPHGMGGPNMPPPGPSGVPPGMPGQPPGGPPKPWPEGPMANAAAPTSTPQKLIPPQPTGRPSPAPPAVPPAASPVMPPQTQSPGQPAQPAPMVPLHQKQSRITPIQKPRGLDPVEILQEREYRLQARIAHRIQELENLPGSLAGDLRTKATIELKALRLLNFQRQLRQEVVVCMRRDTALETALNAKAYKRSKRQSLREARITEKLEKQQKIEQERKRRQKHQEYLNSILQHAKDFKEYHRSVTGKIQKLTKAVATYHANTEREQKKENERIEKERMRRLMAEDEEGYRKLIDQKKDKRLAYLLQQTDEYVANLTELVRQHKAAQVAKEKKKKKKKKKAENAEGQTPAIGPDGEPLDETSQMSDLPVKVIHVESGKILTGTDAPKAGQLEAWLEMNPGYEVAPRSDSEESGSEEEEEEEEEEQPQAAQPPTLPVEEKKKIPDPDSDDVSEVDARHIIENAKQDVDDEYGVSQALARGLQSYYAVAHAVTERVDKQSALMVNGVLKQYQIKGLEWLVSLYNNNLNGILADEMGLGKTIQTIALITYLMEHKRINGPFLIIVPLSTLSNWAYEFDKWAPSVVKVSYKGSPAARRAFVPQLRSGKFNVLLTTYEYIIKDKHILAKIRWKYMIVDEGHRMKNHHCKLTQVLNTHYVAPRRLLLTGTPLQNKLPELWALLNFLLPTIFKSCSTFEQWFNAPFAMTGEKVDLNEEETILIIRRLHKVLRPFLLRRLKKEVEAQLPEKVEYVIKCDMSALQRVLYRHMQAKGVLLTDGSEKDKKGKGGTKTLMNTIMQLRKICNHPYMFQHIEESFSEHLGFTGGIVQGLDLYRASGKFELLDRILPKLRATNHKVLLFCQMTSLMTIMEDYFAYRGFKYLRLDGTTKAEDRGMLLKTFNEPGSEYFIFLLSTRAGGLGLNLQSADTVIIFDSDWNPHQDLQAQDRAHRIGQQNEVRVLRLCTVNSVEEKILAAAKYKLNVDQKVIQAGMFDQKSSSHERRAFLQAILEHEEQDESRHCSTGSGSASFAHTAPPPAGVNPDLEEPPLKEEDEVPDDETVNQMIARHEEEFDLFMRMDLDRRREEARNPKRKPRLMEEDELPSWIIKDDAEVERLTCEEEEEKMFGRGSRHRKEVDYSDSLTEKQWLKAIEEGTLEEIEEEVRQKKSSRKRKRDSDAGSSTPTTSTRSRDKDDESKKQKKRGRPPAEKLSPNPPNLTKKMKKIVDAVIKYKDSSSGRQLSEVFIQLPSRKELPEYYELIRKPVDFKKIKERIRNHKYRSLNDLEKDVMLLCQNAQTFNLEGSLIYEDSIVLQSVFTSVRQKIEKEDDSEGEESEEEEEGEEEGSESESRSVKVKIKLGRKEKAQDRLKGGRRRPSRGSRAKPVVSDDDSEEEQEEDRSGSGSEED
T1 sequence (P40337 whole entry): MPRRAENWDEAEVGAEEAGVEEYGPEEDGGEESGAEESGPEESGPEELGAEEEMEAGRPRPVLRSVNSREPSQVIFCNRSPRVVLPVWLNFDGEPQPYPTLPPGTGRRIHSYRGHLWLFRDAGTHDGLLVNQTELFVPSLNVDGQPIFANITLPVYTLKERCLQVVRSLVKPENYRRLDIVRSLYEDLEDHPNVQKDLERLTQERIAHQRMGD

The nature of series [12]: Plasma concentration in SCID mouse xenografted with human NCI-H838 cells at 10 mg/kg, iv measured after 48 hrs by LC-MS/MS analysis. It is filed as ADME, organism-based.
Series [13] addresses SWI/SNF-related matrix-associated actin-dependent regulator of chromatin subfamily A member 2 (Homo sapiens, UniProt P51531). Briefly: Inhibition of SMARCA2 (unknown origin).
For series [14], the target named is SWI/SNF-related matrix-associated actin-dependent regulator of chromatin subfamily A member 4 (Homo sapiens, UniProt P51532). Briefly: Inhibition of SMARCA4 (unknown origin).
Sequence of SWI/SNF-related matrix-associated actin-dependent regulator of chromatin subfamily A member 4 (P51532 whole entry): as the sequence (P51532 whole entry) above
For series [15], the target named is T1, von Hippel-Lindau disease tumor suppressor/SWI/SNF-related matrix-associated actin-dependent regulator of chromatin subfamily A member 4. Briefly: PROTAC activity at SMARCA4/VHL1 in human HeLa cells assessed as protein degradation after 2 hrs by Nano-Glo HiBiT lytic detection assay. Format: cell-based.
Series [16] has as its system NCI-H1792. Briefly: Antiproliferative activity against human SMARCA4-wild type NCI-H1792 cells assessed as inhibition of cell growth measured after 7 days by WST-8 assay. It is filed as functional. Conditions: NCI-H1792, 168 h, time 7 day. A general note: Formazan colour is commonly taken as a measure of viable cells.
Series [17] relates to NCI-H1792. Briefly: Antiproliferative activity against human SMARCA4-wild type NCI-H1792 cells assessed as maximal inhibition of cell growth measured after 7 days by WST-8 assay relative to control. Format: functional. Conditions: time 7 day.
A short description of series [18]: Antiproliferative activity against human SMARCA4-deficient NCI-H1568 cells assessed as maximal inhibition of cell growth measured after 7 days by WST-8 assay relative to control. Conditions: time 7 day. It is filed as functional.
Series [19] relates to SK-MEL-28. Briefly: Antiproliferative activity against human SMARCA4-wild type SK-MEL-28 cells assessed as inhibition of cell growth measured after 7 days by WST-8 assay. It is filed as functional. Conditions: SK-MEL-28, 168 h, time 7 day.
Series [20] is described as follows: Antiproliferative activity against human SMARCA4-deficient NCI-H1693 cells assessed as maximal inhibition of cell growth measured after 7 days by WST-8 assay relative to control. It is filed as functional. Conditions: time 7 day.
Series [21] can be described thus: Antiproliferative activity against human SMARCA4-deficient NCI-H1944 cells assessed as maximal inhibition of cell growth measured after 7 days by WST-8 assay relative to control. Format: functional. Conditions: time 7 day.
Series [22] can be described thus: Antiproliferative activity against human […] NCI-H1975 cells assessed as inhibition of cell growth measured after 7 days by WST-8 assay. It is filed as functional. Conditions: NCI-H1975, 168 h, time 7 day.
Series [23] is described as follows: Antiproliferative activity against human SMARCA4-deficient NCI-H1693 cells assessed as inhibition of cell growth measured after 7 days by WST-8 assay. It is filed as functional. Conditions: NCI-H1693, 168 h, time 7 day.
The nature of series [24]: Antiproliferative activity against human SMARCA4-deficient NCI-H838 cells assessed as maximal inhibition of cell growth measured after 7 days by WST-8 assay relative to control. Format: functional. Conditions: time 7 day.
Series [25] has as its system SK-MEL-5. Nature of the series: Antiproliferative activity against human SMARCA4-deficient SK-MEL-5 cells assessed as inhibition of cell growth measured after 7 days by WST-8 assay. It is filed as functional. Conditions: SK-MEL-5, 168 h, time 7 day.
Series [26] deals with NCI-H838. Briefly: In vivo anti-tumor activity against SMARCA4-deficient human NCI-H838 cells xenografted in SCID mouse assessed as assessed as inhibition of tumor growth at 10 to 30 mg/kg, iv weekly once. It is filed as functional, organism-based. Conditions: dose 10-30 mg/kg.
In series [27] the test system is SK-MEL-28. Briefly: Antiproliferative activity against human SMARCA4-wild type SK-MEL-28 cells assessed as maximal inhibition of cell growth measured after 7 days by WST-8 assay relative to control. Format: functional. Conditions: time 7 day.
A short description of series [28]: Antiproliferative activity against human SMARCA4-deficient NCI-H1568 cells assessed as inhibition of cell growth measured after 7 days by WST-8 assay. Format: functional. Conditions: NCI-H1568, 168 h, time 7 day.
The nature of series [29]: Antiproliferative activity against human SMARCA4-deficient NCI-H838 cells assessed as inhibition of cell growth measured after 7 days by WST-8 assay. Format: functional. Conditions: NCI-H838, 168 h, time 7 day.
Series [30] can be described thus: Antiproliferative activity against human […] NCI-H1975 cells assessed as maximal inhibition of cell growth measured after 7 days by WST-8 assay relative to control. It is filed as functional. Conditions: time 7 day.
A short description of series [31]: Antiproliferative activity against human SMARCA4-deficient NCI-H1944 cells assessed as inhibition of cell growth measured after 7 days by WST-8 assay. It is filed as functional. Conditions: NCI-H1944, 168 h, time 7 day.

The source made the active and inactive calls. The calls are words filed in the database; no cut-off is given here. Bounds are passed on as bounds.

Sequence of SWI/SNF-related matrix-associated actin-dependent regulator of chromatin subfamily A member 2 (P51531 whole entry): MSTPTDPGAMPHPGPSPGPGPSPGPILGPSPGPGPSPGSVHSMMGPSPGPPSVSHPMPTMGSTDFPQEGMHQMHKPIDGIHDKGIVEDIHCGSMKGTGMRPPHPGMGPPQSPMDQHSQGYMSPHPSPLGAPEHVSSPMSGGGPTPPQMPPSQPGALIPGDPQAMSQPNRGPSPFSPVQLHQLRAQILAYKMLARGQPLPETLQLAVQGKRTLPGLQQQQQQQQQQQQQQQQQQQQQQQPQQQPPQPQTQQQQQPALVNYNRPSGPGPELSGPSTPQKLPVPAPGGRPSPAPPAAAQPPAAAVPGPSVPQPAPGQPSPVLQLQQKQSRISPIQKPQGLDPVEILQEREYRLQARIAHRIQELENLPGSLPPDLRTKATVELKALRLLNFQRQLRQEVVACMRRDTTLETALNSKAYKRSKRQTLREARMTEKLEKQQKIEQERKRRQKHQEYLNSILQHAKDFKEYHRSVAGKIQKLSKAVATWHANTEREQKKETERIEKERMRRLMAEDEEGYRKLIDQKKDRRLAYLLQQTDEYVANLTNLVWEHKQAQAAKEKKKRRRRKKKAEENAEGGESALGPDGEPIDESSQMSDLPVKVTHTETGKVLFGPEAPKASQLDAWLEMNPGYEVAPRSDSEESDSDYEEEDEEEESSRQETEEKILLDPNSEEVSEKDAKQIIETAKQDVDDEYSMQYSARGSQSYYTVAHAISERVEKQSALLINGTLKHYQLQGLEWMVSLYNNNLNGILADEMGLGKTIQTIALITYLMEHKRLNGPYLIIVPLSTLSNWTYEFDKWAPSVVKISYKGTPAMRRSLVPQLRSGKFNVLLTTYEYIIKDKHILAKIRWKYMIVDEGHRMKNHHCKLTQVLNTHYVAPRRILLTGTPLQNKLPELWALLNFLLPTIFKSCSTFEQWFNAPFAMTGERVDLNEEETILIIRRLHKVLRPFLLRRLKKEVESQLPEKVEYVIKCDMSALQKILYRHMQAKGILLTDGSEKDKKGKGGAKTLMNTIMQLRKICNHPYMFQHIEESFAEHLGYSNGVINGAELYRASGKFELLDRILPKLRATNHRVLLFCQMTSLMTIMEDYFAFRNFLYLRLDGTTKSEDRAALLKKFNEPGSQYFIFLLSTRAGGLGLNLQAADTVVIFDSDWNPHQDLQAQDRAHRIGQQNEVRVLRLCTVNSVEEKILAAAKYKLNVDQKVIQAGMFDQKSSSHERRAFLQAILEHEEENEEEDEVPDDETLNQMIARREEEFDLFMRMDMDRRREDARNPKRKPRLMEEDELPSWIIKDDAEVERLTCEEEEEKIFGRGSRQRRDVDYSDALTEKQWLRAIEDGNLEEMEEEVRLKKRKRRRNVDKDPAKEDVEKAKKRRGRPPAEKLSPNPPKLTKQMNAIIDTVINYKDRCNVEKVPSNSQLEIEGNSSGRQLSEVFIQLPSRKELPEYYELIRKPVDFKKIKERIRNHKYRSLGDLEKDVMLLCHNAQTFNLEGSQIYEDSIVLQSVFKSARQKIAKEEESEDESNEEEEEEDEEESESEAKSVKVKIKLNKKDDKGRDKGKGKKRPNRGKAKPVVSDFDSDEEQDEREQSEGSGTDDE
Sequence of von Hippel-Lindau disease tumor suppressor (P40337 whole entry): as the sequence (P40337 whole entry) above
Sequence of von Hippel-Lindau disease tumor suppressor/SWI/SNF-related matrix-associated actin-dependent regulator of chromatin subfamily A member 2 (P51531 whole entry): as the sequence (P51531 whole entry) above
Sequence of von Hippel-Lindau disease tumor suppressor/SWI/SNF-related matrix-associated actin-dependent regulator of chromatin subfamily A member 2 (P40337 whole entry): as the sequence (P40337 whole entry) above

Regarding `Cc1ncsc1-c1ccc([C@H](C)NC(=O)[C@@H]2C[C@@H](O)CN2C(=O)[C@@H](n2cc(C3CC3)nn2)C(C)(C)C)cc1`, in series [1], the IC50 – broadly, the midpoint of a concentration-inhibition curve – is 18.9 nM.
Take `Cc1ncsc1-c1ccc(CNC(=O)[C@@H]2C[C@@H](O)CN2C(=O)[C@@H](NC(=O)C2(F)CC2)C(C)(C)C)c(OCCOc2ccc(CN3CCN(c4cc(-c5ccccc5O)nnc4N)CC3)cc2)c1`: the half-maximal degradation concentration (DC50) (as a rule, the concentration giving 50% degradation) in series [2] came out at 11 nM; in series [4], 6 nM. Moreover, the Emax in [3] and in series [5] was greater than 95% in each case. Further, the Ratio in series [6] came to 2.
Turning to `Cc1ncsc1-c1ccc([C@H](CN2CCOCC2)NC(=O)[C@@H]2C[C@@H](O)CN2C(=O)[C@H](C2CCOCC2)n2cc([C@H]3CC[C@H](CN4CCC(c5ccc6c(c5)-n5c(nc(=O)c7c(Cl)cccc75)C65CCCCC5)CC4)CC3)nn2)cc1`, the concentration at 48 h in series [7] is 491 ng/mL; in series [12], 30 ng/mL. Further, the concentration at 168 h came to 65 ng/mL in series [8] and 2.6 ng/mL in [9]. For the same compound, the 50% degradation concentration (DC50) is 0.1 nM in [10] and greater than 1000 nM in series [11].
With `O=c1nc2n(c3cccc(Cl)c13)-c1cc(C3CCNCC3)ccc1C21CCCCC1`, the half-inhibitory concentration (IC50) is 66 nM in series [13] and 83 nM in series [14].
Take `O=c1nc2n(c3cccc(Cl)c13)-c1ccc(C3CCNCC3)cc1C21CCCCC1`: the IC50 is 43 nM in series [13] and 58 nM in series [14].
`Cc1cn([C@H](C(=O)N2C[C@H](O)C[C@H]2C(=O)N[C@@H](C)c2ccc(-c3scnc3C)cc2)C(C)(C)C)nn1` yielded a half-inhibitory concentration (IC50) in [1] of 16.1 nM.
Turning to `Cc1ncsc1-c1ccc([C@H](CN2CCOCC2)NC(=O)[C@@H]2C[C@H](O)CN2C(=O)[C@@H](n2cc([C@H]3CC[C@H](CN4CCC(c5ccc6c(c5)C5(CCCCC5)c5nc(=O)c7c(Cl)cccc7n5-6)CC4)CC3)nn2)C(C)(C)C)cc1`, the 50% degradation concentration (DC50) result in series [15] is “Not_active”.
`Cc1ncsc1-c1ccc([C@H](C)NC(=O)[C@@H]2C[C@@H](O)CN2C(=O)[C@@H](NC(=O)[C@H]2CC[C@H](CN3CC4(CCC(n5cc(-c6cc(-c7ccccc7O)nnc6N)cn5)CC4)C3)CC2)C(C)(C)C)cc1`: the 50% growth inhibitory concentration (GI50) (as a rule, the concentration that inhibits growth by half) was greater than 10000 nM in series [16]; greater than 10000 nM in series [19]; greater than 10000 nM in series [22]; 43 nM in [23]; 16 nM in series [25]; 12 nM in [28]. Besides, the figures for the 50% growth inhibitory concentration (GI50) in series [29] and in series [31] were 152 nM and 123 nM, respectively. Further, the Imax in series [17] is recorded as 25%; in [18], 87%; in [20], 81%; in series [21], 70%; in [24], 77%; in series [27], 15%. Moreover, the Imax in [30] was 40%. Further, in series [26], the outcome was Active.
